Measurements reported in patent US9844540B2, “Combination therapies for treating cancer” (RedHill Biopharma Ltd., priority 2015, dated 2017).
Several values for one entry are separate records, joined by “and”; a condition that tells them apart may be missing. Equal values may be shown once. Read-outs that look alike come from different tables or passages of the source.

How the values were obtained:
[1] = tested on: Hs 766T pancreatic cancer cell line; test: In vitro cytotoxicity MTT assay, Hs 766T; assay type: cell-based, human; settings: 3 days
Experimental: (§1) The following experiment was performed to assess the potential of combination agents of the present disclosure for their capability of inhibiting the growth or proliferation of pancreatic cancer cells comprising contacting pancreatic cancer cells with effective amounts of the agents, alone and in combination, thereby inhibiting the growth or proliferation of the pancreatic cancer cells.
(§2) The present study investigated whether clarithromycin+rifabutin+clofazimine (“Combo”) would be synergistic with [3-(4-chlorophenyl)-adamantane-1-carboxylic acid (pyridin-4-ylmethyl)amide] (“ABC2640”) against MIA PaCa-2, PANC-1, and Hs 766T pancreatic cancer cell lines. Hs 766T is a cell line derived from the lymph node metastasis of a person with pancreas carcinoma. MIA PaCa-2 is a cell line derived from the pancreas adenocarcinoma of a person who presented with abdominal pain for 6 months and a palpable upper abdominal mass. PANC-1 was cultured from a person with an adenocarcinoma in the head of the pancreas which invaded the duodenal wall.
(§3) The MTT assay is commonly used to determine cytotoxicity of potential medicinal agents, since these types of materials are expected to stimulate or inhibit cell viability and growth. Briefly, 3,000 cells were plated/well—100 μl/well. After overnight, prior to the assay, 50 μl supernatant was removed from each well. Each drug was added at 4× of the final concentration (in 50 μl). Total volume of each well was 200 μl. 4 wells had been used as a control and contained no cells at all. The plate was developed after being incubated for 3 days at 37° C. 20 μl of Promega Substrate Cell Titer 96 Aqueous One Solution Reagent was added to each well, incubated at 37° C. and read OD at 490 nm. The MTT test is based on the enzymatic reduction of the tetrazolium salt MTT [3-(4,5-dimethylthiazol-2-yl)-2,5-diphenyl-tetrazoliumbromide^+++] in living, metabolically active cells but not in dead cells. The reaction is carried out in situ in multiwell plates, and the reaction product, a purple-colored formazan soluble in dimethylsulfoxide, is measured colorimetrically, using a multiwell plate reader.

[2] = tested on: MIA PaCa-2 pancreatic cancer cell line; test: In vitro cytotoxicity MTT assay, MIA PaCa-2; assay type: cell-based, human; settings: 3 days
Experimental: as §1, §2, §3

[3] = tested on: PANC-1 pancreatic cancer cell line; test: In vitro cytotoxicity MTT assay, PANC-1; assay type: cell-based, human; settings: 3 days
Experimental: as §1, §2, §3

[4] = tested on: mouse JC mammary adenocarcinoma cell line; test: Antitumor activity in syngeneic JC mammary adenocarcinoma model; assay type: in vivo, Balb/c mice
Experimental: The antitumor activity of ABC294640 was evaluated using a syngeneic tumor model that uses the mouse JC mammary adenocarcinoma cell line growing subcutaneously in immunocompetent Balb/c mice (Lee et al., 2003, Oncol Res 14: 49). These cells express elevated levels of SK activity relative to non-transformed cells, as well as the multidrug resistance phenotype due to P-glycoprotein activity.
Balb/c mice, 6-8 weeks old, were injected subcutaneously with 10^6 JC cells suspended in phosphate-buffered saline. ABC294640 was dissolved in PEG400 and administered to mice every-other day at a dose of 100 mg/kg. Body weights and tumor volumes were monitored daily. […] ABC294640 inhibited tumor growth relative to controls by 69%.

[5] = mouse, in vivo
Experimental: […]. […] ABC294640 could also be administered orally to mice at doses up to at least 100 mg/kg without noticeable toxicity.

[6] = tested on: MCF-7 human breast adenocarcinoma cells; test: Cytotoxicity, SRB assay, MCF-7; assay type: cell-based; settings: MCF7, 48 h, read-out: IC50 (concentration that inhibited proliferation by 50%)
Experimental: (§4) To assess the biological efficacy of ABC294640 in intact cells, ABC294640 was evaluated for cytotoxicity using human cancer cell lines. These experiments followed methods that have been extensively used. Cell lines tested included MCF-7 human breast adenocarcinoma cells and MCF-10A non-transformed human breast epithelial cells. The indicated cell lines were treated with varying doses of ABC294640 for 48 h. Cell survival was then determined using the SRB binding assay (Skehan et al., 1990, J Natl Cancer Inst 82: 1107), and the concentration of ABC294640 that inhibited proliferation by 50% (the IC50) was calculated. […] ABC294640 is antiproliferative at sub-to-low-micromolar.

[7] = physchem; assay type: physicochemical; settings: aqueous with cosolvent or surfactant or cyclodextrin
[8] = tested on: MCF-10A non-transformed human breast epithelial cells; test: Cytotoxicity, SRB assay, MCF-10A; assay type: cell-based; settings: 48 h, SRB binding assay, read-out: IC50 (concentration that inhibited proliferation by 50%)
Experimental: as §4

[9] = tested on: human tumor cell strain K562-WT
Experimental: (§5) The human tumor cell strain K562-WT and the tumor cell strain F46-WT of the mouse (WT=wild type=sensitive to cytostatic treatment=no amplification of the MDR-gene) is treated over several weeks with staged increase in concentrations of adriamycin. […] The formation of resistance is based on the amplification of the MDR gene.

[10] = tested on: AH13r sarcoma cells; test: BVDU and chemotherapy-induced apoptosis in AH13r sarcoma cells; assay type: cell-based
Source text: AH13r cells were subjected to increasing doses of the cytostatic mitomycin C (MMC). […] This inhibitory effect was maintained even after discontinuation of the cytostatic in the next cycle, in the so-called recovery phase. The cells without MMC and BVDU continued to grow without inhibition. […] The indication that the reduction in cell number is based on apoptosis, was detected by means of Hoechst 33258/propidium iodide (Hopi) double colouration.

[11] = tested on: tumor cell strain F46-WT of the mouse; settings: for formation of resistance to adriamycin: 6 to 8 weeks
Experimental: as §5
The tumor cell strain F4-6-WT of the mouse (WT=wild type=sensitive to cytostatic treatment=no amplification of the MDR gene) is treated over several weeks with staged increases in concentration of adriamycin. […] The formation of resistance is based on the amplification of the MDR gene. The levels of β-actin MRNA are likewise analyzed as comparison. β-actin is used as an internal control for the RNA quantity.

[12] = tested on: LPS-induced cytokine production; test: LPS-induced cytokine production in C57BL/6 mice; assay type: in vivo; settings: serum 2 hours after LPS; dosed once 1 hour before LPS; dexamethasone 5 mg/kg i.p., RHB-104 108 mg/kg p.o.
Experimental: This study was performed to evaluate the effects of RHB-104 (as detailed above) dosed orally at 108 mg/kg on lipopolysaccharide (LPS)-induced cytokine production in mice. The LPS-induced cytokine production model in mice is commonly used to test the ability of compounds to suppress production of pro-inflammatory cytokines TNF and IL-6 in vivo.
In this model LPS is injected into mice intraperitoneally (i.p.) or intravenously. Two hours after the LPS injection, concentrations of IL-6 and TNF reach peak levels in serum of the injected mice.
30 female C57BL/6 mice, 11 weeks old, were dosed once with RHB-104, then injected with LPS 1 hour later. 2 hours after LPS injection, mice were bled and serum was isolated. The concentration of cytokines in serum was measured. Dexamethasone administered at 5 mg/kg i.p. was used as positive control for suppression of the immune response. Dexamethasone suppresses production of pro-inflammatory cytokines TNF and IL-6 increases production of anti-inflammatory cytokine IL-10.
Serum concentrations of IL-2, IL-4, IL-6, IL-10, IL-17, IFN-γ and TNF were measured using cytokine bead analysis (CBA) Th1/Th2/Th17 kit (Becton Dickinson). Concentrations of cytokines in serum between groups were compared using 2-tailed Student's t-test.

[13] = tested on: rat pancreatic tumor model, CA20948; test: In vivo test of WX-671 in the pancreatic adenocarcinoma model CA20948; settings: 0.3 mg/kg by intraperitoneal injection; vehicle 30.7%
Experimental: Groups of eighteen rats were inoculated with tumor by intraperitoneal injection of a tumor cell suspension, prepared from a solid tumor harvested from a donor rat.
In this model the intraperitoneally grafted cells migrate to the pancreas to form a pancreatic tumor intimately associated with the pancreas. Within 3 weeks the tumor disseminates typically to the liver to form metastatic lesions which can be counted. Treatments at dose levels of 0.03, 0.3 and 3.0 mg/kg once daily were orally applied daily from day 3 onwards.
The percentage of large liver foci was determined by dividing the number of large lesions by the number of total lesion detected on the livers.

[14] = tested on: BN472 breast cancer; test: In vivo assay of WX-671 in the BN472 rat breast cancer model; design: species or system brown Norwegian rats; settings: WX-UK1 1 mg/kg i.p. daily, 30 days
Experimental: The treatments started 72 h after tumor implantation and were repeated daily until the animals were sacrificed after 30 days. The control group (A) received 0.75 ml of the substance-free substance carrier solution consisting of 5% ethanol, 5% D-mannitol and 5% Tween 20 in water orally by gavage.
Growth of the inoculated tumors was determined in the dimensions length and width twice weekly, using a slide gauge. After the animals had been sacrificed, the therapy end points, tumor weight, weights of the axillary and intraperitoneal lymph nodes and also the number of macroscopic lung metastases were determined.

O=C(NCc1ccncc1)C12CC3CC(C1)CC(c1ccc(Cl)cc1)(C3)C2 [ABC640, 3-(4-chlorophenyl)-adamantane-1-carboxylic acid (pyridin-4-ylmethyl)amide]
Toxicity (%) ([1]; 25 μM): 17% | Toxicity (%) ([1]; 50 μM): 72% | Toxicity (%) ([2]; 25 μM): 11% | Toxicity (%) ([2]; 50 μM): 92% | Toxicity (%) ([3]; 25 μM): 0% | Toxicity (%) ([3]; 50 μM): 68%

O=C(NCc1ccncc1)C12CC3CC(C1)CC(c1ccc(Cl)cc1)(C3)C2 [ABC294640, 3-(4-chlorophenyl)-adamantane-1-carboxylic acid (pyridin-4-ylmethyl)amide]
inhibition of tumor growth relative to controls ([4]; 100 mg/kg in PEG400 every-other day): 69% | decrease of tumor growth versus control animals ([4]; 100 mg/kg in PEG400 every-other day, day 16): > 70% | oral dose with antitumor activity (dose-response studies) ([4]; orally administered): ≥ 35 mg/kg | dose with no immediate or delayed toxicity, acute toxicity ([5]; female, Swiss-Webster, ip): at least 50 mg/kg | oral dose without noticeable toxicity ([5]; po): at least 100 mg/kg | IC50 [6]: 17 µM | solubility [7]: ≥ 15000 µg/mL and 30000 µM to 40000 µM | IC50 [8]: 21 µM

O=c1[nH]c(=O)n(C2CC(O)C(CO)O2)cc1/C=C/Br (stereo not drawn) [BVDU, (E)-5-(2-bromovinyl)-2-deoxyuridine]
formation of resistance to adriamycin ([9]; K562-WT, 0.5 or 1 μg/ml BVDU together with staged increasing adriamycin, 6 to 8 weeks): prevents the formation of resistance to adriamycin | concentration from which BVDU acts in a toxic manner ([9]; human): about 10 μg/ml | toxic effect, given alone [10]: no toxic effect | cell growth in the recovery phase after discontinuation of the cytostatic ([10]; continued BVDU without MMC): greatly inhibited in their growth | formation of resistance to adriamycin ([11]; F4-6-WT, 1 μg/ml BVDU with adriamycin): prevented the formation of resistance to adriamycin | formation of resistance to adriamycin ([11]; F46-WT, 0.5 or 1 μg/ml BVDU together with staged increasing adriamycin): prevents the formation of resistance to adriamycin | concentration from which BVDU acts in a toxic manner ([11]; mouse): about 8 μg/ml

C[C@@H]1C[C@H]2[C@@H]3CCC4=CC(=O)C=C[C@]4(C)[C@@]3(F)[C@@H](O)C[C@]2(C)[C@@]1(O)C(=O)CO [Dexamethasone, dexamethasone]
IL-6 (pg/mL) ± SD [12]: 1259 ± 295 pg/mL | IL-10 (pg/mL) ± SD [12]: 106 ± 66 pg/mL | TNF (pg/mL) ± SD [12]: 35 ± 10 pg/mL

CCOC(=O)N1CCN(C(=O)[C@H](Cc2cccc(C(=N)N)c2)NS(=O)(=O)c2c(C(C)C)cc(C(C)C)cc2C(C)C)CC1.Cl [UK-1]
Toxicity (%) ([1]; 5 μM): 35% | Toxicity (%) ([1]; 10 μM): 28% | Toxicity (%) ([1]; 20 μM): 19% | Toxicity (%) ([2]; 5 μM): 33% | Toxicity (%) ([2]; 10 μM): 0% | Toxicity (%) ([2]; 20 μM): 0% | Toxicity (%) ([3]; 5 μM): 0% | Toxicity (%) ([3]; 10 μM): 0% | Toxicity (%) ([3]; 20 μM): 14%

CCOC(=O)N1CCN(C(=O)[C@H](Cc2cccc(C(=N)N)c2)NS(=O)(=O)c2c(C(C)C)cc(C(C)C)cc2C(C)C)CC1 [WX-UK1, Na-(2,4,6-triisopropylphenylsulfonyl)-3-amidino-(L)-phenylalanine-4-ethoxycarbonylpiperazide]
percentage large mets (>2 mm liver lesions of total liver lesions) [13]: 13.4% | reduction of average tumor weights at the end of the treatment compared to the control [14]: approx. 5%

COc1cccc2c1C(=O)c1c(O)c3c(c(O)c1C2=O)C[C@@](O)(C(=O)CO)C[C@@H]3O[C@H]1C[C@H](N)[C@H](O)[C@H](C)O1 [adriamycin]
toxic effect on non-resistant cells ([9]; K562-WT, 20 ng/ml, treatment time 4 days): severely toxic effect

CC[C@H]1OC(=O)[C@H](C)[C@@H](O[C@H]2C[C@@](C)(OC)[C@@H](O)[C@H](C)O2)[C@H](C)[C@@H](O[C@@H]2O[C@H](C)C[C@H](N(C)C)[C@H]2O)[C@](C)(OC)C[C@@H](C)C(=O)[C@H](C)[C@@H](O)[C@]1(C)O [clarithromycin, Clarithromycin]
Toxicity (%) ([1]; 100 μM): 29% | Toxicity (%) ([2]; 100 μM): 0% | Toxicity (%) ([3]; 100 μM): 7%

CC(C)/N=c1\cc2n(-c3ccc(Cl)cc3)c3ccccc3nc-2cc1Nc1ccc(Cl)cc1 [clofazimine, Clofazimine]
Toxicity (%) ([1]; 5 μM): 62% | Toxicity (%) ([2]; 5 μM): 4% | Toxicity (%) ([3]; 5 μM): 41%

CO[C@H]1/C=C/O[C@@]2(C)Oc3c(C)c(O)c4c(c3C2=O)C2=NC3(CCN(CC(C)C)CC3)NC2=C(NC(=O)/C(C)=C\C=C\[C@H](C)[C@H](O)[C@@H](C)[C@@H](O)[C@@H](C)[C@H](OC(C)=O)[C@@H]1C)C4=O [rifabutin, Rifabutin]
Toxicity (%) ([1]; 70 μM): 20% | Toxicity (%) ([2]; 35 μM): 8% | Toxicity (%) ([3]; 70 μM): 0%
